Values quoted from earlier work as cited in patent US9351995B1, “Compositions and methods of enhancing wound healing” (RED OAX HOLDINGS, LLC, priority 2011, dated 2016).

Key:
[1] = tested on: human surface respiratory epithelium; conditions: cited from earlier work
[2] = tested on: fibroblast; conditions: cited from earlier work

COc1cc2c(c(OC)c1OC)-c1ccc(OC)c(=O)cc1[C@@H](NC(C)=O)CC2 [colchicine]
effect on repair of small-size injuries [1]: did not interrupt the repair process

C=C1[C@@H](C)[C@H]2[C@H](Cc3ccccc3)NC(=O)[C@]23OC(=O)/C=C/[C@H](O)CCC[C@@H](C)C/C=C/[C@H]3[C@@H]1O [cytochalasin B]
effect on repair of small-size injuries [1]: prevented cell migration

[Br-].[Br-].[Mg+2] [MgBr2]
fibroblast outgrowth [2]: inhibitory effects on fibroblast outgrowth
